According to ChEMBL document CHEMBL5338771, “Trioxacarcin A Interactions with G-Quadruplex DNA Reveal Its Potential New Targets as an Anticancer Agent” (J Med Chem, 2023):
Activity calls are given as the source filed them. The rule behind the calls is not given here.

Key:
Format in all cases: nucleic-acid assay
[1] = system: Quadruplex DNA; assay: Induction of DNA stabilization in abasic-basic RET G4 quadruplex DNA (unknown origin) assessed as melting temperature in 100 mM K+ buffer solution by DSC spectra analysis
[2] = system: Quadruplex DNA; assay: Covalent binding affinity to RET G4 quadruplex DNA (unknown origin) by measuring molecular weight for complex formation by ESI mass spectrum analysis
[3] = system: Quadruplex DNA; assay: Covalent binding affinity to RET G4 quadruplex DNA (unknown origin) assessed as alkylation at G6 base by DNA cleavage assay
[4] = system: Quadruplex DNA; assay: Binding affinity to c-MYC G4 quadruplex DNA (unknown origin) by 1D 1H-NMR analysis
[5] = system: Quadruplex DNA; assay: Covalent binding affinity to RET G4 quadruplex DNA (unknown origin) assessed as alkylation at G14 base by DNA cleavage assay
[6] = system: Quadruplex DNA; assay: Covalent binding affinity to RET G4 quadruplex DNA (unknown origin) assessed as stable complex formation measured after 9 days by mass spectrum analysis; conditions: time 9.0 day
[7] = system: Quadruplex DNA; assay: Covalent binding affinity to RET G4 quadruplex DNA (unknown origin) assessed as alkylation at G4 base at 98 degC for 5 mins by DNA cleavage assay
[8] = system: Quadruplex DNA; assay: Binding affinity to RET G4 quadruplex DNA (unknown origin) by measuring chemical shift change for 0 to 21 days by 1D 1H-NMR analysis; conditions: time 0-21 day
[9] = system: Quadruplex DNA; assay: Covalent binding affinity to RET G4 quadruplex DNA (unknown origin) assessed as stable complex formation by measuring molecular weight peak after 19 days by mass spectrum analysis; conditions: time 19.0 day
[10] = system: Quadruplex DNA; assay: Induction of DNA stabilization in free RET G4 quadruplex DNA (unknown origin) assessed as melting temperature in 100 mM K+ buffer solution by DSC spectra analysis
[11] = system: Quadruplex DNA; assay: Induction of DNA stabilization in RET G4 quadruplex DNA (unknown origin) containing 2'-F base G4 assessed as melting temperature (reference value: 71.99 degreeC)

Tm [1]: 78 °C | Activity [2]: 6450 Da | Activity [3]: inactive | Activity [4]: Active | Activity [5]: inactive | Activity [6]: Active | Activity [7]: Active | Activity [8]: Active | Activity [9]: 7330 Da | Tm [10]: 91 °C | Tm [11]: 74.7 °C
Structure (SMILES): COc1c2c(c(O)c3c4c(c(C)cc13)C1O[C@@]3(C(OC)OC)OC1[C@](O[C@H]1C[C@@H](O)[C@@](O)(C(C)=O)[C@H](C)O1)(O4)C31CO1)C(=O)[C@@H](O)C[C@@H]2OC1C[C@](C)(O)[C@@H](OC(C)=O)[C@@H](C)O1 (stereo partly specified)
